# Results as given in patent US6548522B1, “Method for treating conditions related to the glutamate receptor using carboxylic acid amide derivatives” (Hoffmann-La Roche Inc., priority 1999, dated 2003).
# Columns and labels:
# rat mGlu1a receptor = target: T1, rat mGlu1a receptor (Rattus norvegicus, UniProt P23385); test: [Ca2+]i measurement (FLIPR) on mGlu1a transfected EBNA cells; format: cell-based; details: for EC50: mGlu1a transfected EBNA cells, Fluo-3 AM, antagonists tested against 10 μM glutamate as agonist; for agonist or antagonist on group I mGlu receptor: mode of action, in words
# T1 construct: expressed in transfected cells; host or cells: EBNA cells (transient transfection)
# Procedure: cDNA encoding for rat mGlula receptor obtained from Prof.
# [Ca^2+]i measurement were performed on mGlu1a transfected EBNA cells after incubation of the cells with Fluo-3 AM (0.5 μM final concentration) for 1 hour at 37° C. followed by 4 washes with assay buffer (DMEM supplemented with Hank's salt and 20 mM HEPES). [Ca^2+]i measurement were done using a fluorometric imaging plate reader (FLIPR, Molecular Devices Corporation, La Jolla, Calif., USA). When compounds were evaluated as antagonists they were tested against 10 μM glutamate as agonist.
# The inhibition (antagonists) or activation (agonists) curves were fitted with a four parameter logistic equation giving EC50, IC50and Hill coefficient using the iterative non linear curve fitting software Origin (Microcal Software Inc., Northampton, Mass., USA).
# T1 sequence (P23385 19-1199): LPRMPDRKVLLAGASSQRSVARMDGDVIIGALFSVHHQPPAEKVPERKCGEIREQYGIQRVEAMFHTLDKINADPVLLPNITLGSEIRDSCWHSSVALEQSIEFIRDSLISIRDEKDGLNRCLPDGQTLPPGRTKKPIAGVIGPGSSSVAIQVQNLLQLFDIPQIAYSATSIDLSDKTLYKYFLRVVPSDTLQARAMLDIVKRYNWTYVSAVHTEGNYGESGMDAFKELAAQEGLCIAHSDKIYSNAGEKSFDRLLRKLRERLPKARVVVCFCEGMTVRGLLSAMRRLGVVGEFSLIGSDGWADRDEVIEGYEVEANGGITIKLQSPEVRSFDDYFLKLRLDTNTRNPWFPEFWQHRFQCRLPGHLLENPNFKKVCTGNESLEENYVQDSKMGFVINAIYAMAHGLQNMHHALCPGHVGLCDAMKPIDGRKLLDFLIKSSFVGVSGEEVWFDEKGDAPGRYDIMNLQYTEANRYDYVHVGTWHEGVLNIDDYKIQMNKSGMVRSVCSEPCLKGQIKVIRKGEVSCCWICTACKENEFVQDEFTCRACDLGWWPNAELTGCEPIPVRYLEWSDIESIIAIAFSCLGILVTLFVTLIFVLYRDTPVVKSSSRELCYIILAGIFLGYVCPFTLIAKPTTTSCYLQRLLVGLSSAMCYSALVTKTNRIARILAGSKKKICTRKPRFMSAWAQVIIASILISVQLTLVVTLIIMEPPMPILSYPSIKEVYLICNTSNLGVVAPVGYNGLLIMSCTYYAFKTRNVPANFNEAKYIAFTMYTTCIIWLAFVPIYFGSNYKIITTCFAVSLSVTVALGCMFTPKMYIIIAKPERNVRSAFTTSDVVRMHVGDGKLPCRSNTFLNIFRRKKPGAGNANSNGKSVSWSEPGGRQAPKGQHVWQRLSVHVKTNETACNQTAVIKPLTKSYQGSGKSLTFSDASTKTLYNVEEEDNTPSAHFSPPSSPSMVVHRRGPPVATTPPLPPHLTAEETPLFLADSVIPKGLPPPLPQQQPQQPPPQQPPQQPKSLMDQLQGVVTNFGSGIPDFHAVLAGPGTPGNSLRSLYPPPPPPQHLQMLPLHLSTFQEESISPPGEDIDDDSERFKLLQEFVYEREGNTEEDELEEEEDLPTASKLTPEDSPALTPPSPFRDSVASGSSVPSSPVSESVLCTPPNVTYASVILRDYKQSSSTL
melting point [°C],EC50 (rat mGlu1a receptor) [µM],agonist or antagonist on group I mGlu receptor (rat mGlu1a receptor),Compound
62,12.7,antagonistic activity,"CCCNC(=O)C(C)(c1ccccc1)c1ccccc1 [Example 3, 2,2-Diphenyl-N-propyl-propionamide]"
90,2.12,,"CCCNC(=O)C(c1ccccc1)c1ccccc1 [Example 2, 2,2-Diphenyl-N-propyl-acetamide]"
75.5 to 76.8,2.98,,"COCCCCNC(=O)C(c1ccccc1)c1ccccc1 [Example 19, N-(4-Methoxy-butyl)-2,2-diphenyl-acetamide]"
,1,antagonistic activity,"CCCCCNC(=O)C(C)(c1ccccc1)c1ccccc1 [Example 4, N-Pentyl-2,2-diphenyl-propionamide]"
79,,antagonistic activity,"CC(C(=O)NCC1CCC1)(c1ccccc1)c1ccccc1 [Example 25, N-Cyclobutylmethyl-2,2-diphenyl-propionamide]"
85,,,"CC=CCCCNC(=O)C(c1ccccc1)c1ccccc1 [Example 17, N-Hex-4-enyl-2,2-diphenyl-acetamide]"
,,antagonistic activity,"CCCCNC(=O)C(C)(c1ccccc1)c1ccccc1 [Example 6, N-Butyl-2,2-diphenyl-propionamide]"
166,15,antagonistic activity,"O=C(NCCCC(F)(F)F)C(c1ccccc1)c1ccccc1 [Example 26, 2,2-Diphenyl-N-(4,4,4-trifluoro-butyl)-acetamide]"
100,,,"CCCCCCNC(=O)C(c1ccccc1)c1ccccc1 [Example 9, N-Hexyl-2,2-diphenyl-acetamide]"
90,,,"C#CCCCNC(=O)C(c1ccccc1)c1ccccc1 [Example 28, N-Pent-4-ynyl-2,2-diphenyl-acetamide]"
82,,antagonistic activity,"CC(C(=O)NCCCC(F)(F)F)(c1ccccc1)c1ccccc1 [Example 27, 2,2-Diphenyl-N-(4,4,4-trifluoro-butyl)-propionamide]"
101,,,"CCCCCNC(=O)C(c1ccccc1)c1ccccc1 [Example 1, N -Pentyl-2,2-diphenyl-acetamide]"
83.5 to 86.2,,,"CCOCCNC(=O)C(c1ccccc1)c1ccccc1 [Example 20, N-(2-Ethoxy-ethyl)-2,2-diphenyl-acetamide]"
380,,antagonistic activity,"CC(C(=O)NCC1CC1)(c1ccccc1)c1ccccc1 [Example 11, N-Cyclopropylmethyl-2,2-diphenyl-propionamide]"
96,,,"CCCCNC(=O)C(c1ccccc1)c1ccccc1 [Example 5, N-Butyl-2,2-diphenyl-acetamide]"

# Second part, the compound before the results:
Compound,melting point [°C],EC50 (rat mGlu1a receptor) [µM],agonist or antagonist on group I mGlu receptor (rat mGlu1a receptor)
"O=C(NCC1CC1)C(c1ccccc1)c1ccccc1 [Example 10, N-Cyclopropylmethyl-2,2-diphenyl-acetamide]",130,,
"C=CCNC(=O)C(c1ccccc1)c1ccccc1 [Example 13, N-Allyl-2,2-diphenyl-acetamide]",186,,
"O=C(NC1CC1)C(c1ccccc1)c1ccccc1 [Example 7, N-Cyclopropyl-2,2-diphenyl-acetamide]",292,17,
"CCNC(=O)C(c1ccccc1)c1ccccc1 [Example 12, N-Ethyl-2,2-diphenyl-acetamide]",87,,
"CCCC=CCNC(=O)C(c1ccccc1)c1ccccc1 [Example 16, N-Hex-2-enyl-2,2-diphenyl-acetamide]",81,,
"O=C(NCC1CC1)C(c1ccccc1)c1ccccn1 (racemic) [Example 22, (RS)-N-Cyclopropylmethyl-2-phenyl-2-pyridin-2-yl-acetamide]",,,antagonistic activity
"CC(C)CCNC(=O)C(c1ccccc1)c1ccccc1 [Example 15, N-(3-Methyl-butyl)-2,2-diphenyl-acetamide]",128,,
"C#CCNC(=O)C(c1ccccc1)c1ccccc1 [Example 14, 2,2-Diphenyl-N-prop-2-ynyl-acetamide]",131,,
"CCCCCCCNC(=O)C(c1ccccc1)c1ccccc1 [Example 8, N-Heptyl-2,2-diphenyl-acetamide]",90,,
"COCCCCCNC(=O)C(c1ccccc1)c1ccccc1 [Example 18, N-(5-Methoxy-pentyl)-2,2-diphenyl-acetamide]",74.2 to 75,,
"CCCOCCNC(=O)C(c1ccccc1)c1ccccc1 [Example 21, 2,2-Diphenyl-N-(2-propoxy-ethyl)-acetamide]",77.8 to 78.9,3.13,
